Experimental data taken from the supplement of paper PMC6411743.

Compound: Nc1ncnc2c1ncn2[C@@H]1O[C@H](COP(=O)(O)OP(=O)(O)OP(=O)(O)O)[C@@H](O)[C@H]1O [adenosine triphosphate]
Assay: pEC50 of ATP-induced change in protein thermal stability (2D-TPP)
Summary of the method: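 Soluble protein was quantified by TMT LC-MS/MS after ultracentrifugation of Jurkat crude lysate that had been dosed at five concentrations including vehicle (10 min, room temperature), heated at 12 temperatures of 42–63.9 °C for 3 min, and incubated with NP40 and benzonase at 4 °C for 60 min. Fold changes against vehicle at each temperature were median-normalised, and pEC50 was derived from per-replicate dose-response fits over adjacent temperature pairs. Hits were called with permutation-based false discovery rate control in three independent experiments.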
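Also: lysate dosed with Na-ATP at 0 0.005 0.05 0.5 and 2 mM.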

Sequence of UniProt P26599 (P26599 whole entry): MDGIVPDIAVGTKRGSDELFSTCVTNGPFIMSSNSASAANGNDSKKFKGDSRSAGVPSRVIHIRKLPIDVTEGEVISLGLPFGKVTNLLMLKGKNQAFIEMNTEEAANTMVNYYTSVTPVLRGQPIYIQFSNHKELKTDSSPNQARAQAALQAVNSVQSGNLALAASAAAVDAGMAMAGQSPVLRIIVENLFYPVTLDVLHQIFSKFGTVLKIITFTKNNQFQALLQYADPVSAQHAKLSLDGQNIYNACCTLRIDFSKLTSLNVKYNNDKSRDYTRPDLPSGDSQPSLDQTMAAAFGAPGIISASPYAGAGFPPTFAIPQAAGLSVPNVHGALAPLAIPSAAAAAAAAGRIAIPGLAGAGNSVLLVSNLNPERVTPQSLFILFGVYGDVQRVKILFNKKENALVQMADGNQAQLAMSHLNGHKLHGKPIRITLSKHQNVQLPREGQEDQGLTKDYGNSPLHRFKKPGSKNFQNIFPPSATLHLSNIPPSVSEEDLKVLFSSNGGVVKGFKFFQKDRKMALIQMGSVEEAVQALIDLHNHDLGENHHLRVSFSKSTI
Sequence of UniProt Q9Y478 (Q9Y478 whole entry): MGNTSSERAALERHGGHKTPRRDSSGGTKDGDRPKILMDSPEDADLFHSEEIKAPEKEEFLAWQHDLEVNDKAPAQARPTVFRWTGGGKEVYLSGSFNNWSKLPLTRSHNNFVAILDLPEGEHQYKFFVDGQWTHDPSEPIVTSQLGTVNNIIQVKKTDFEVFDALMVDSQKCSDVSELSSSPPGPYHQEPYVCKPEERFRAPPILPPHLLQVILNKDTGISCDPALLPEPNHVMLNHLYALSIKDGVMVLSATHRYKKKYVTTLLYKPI
Sequence of UniProt P98194 (P98194 whole entry): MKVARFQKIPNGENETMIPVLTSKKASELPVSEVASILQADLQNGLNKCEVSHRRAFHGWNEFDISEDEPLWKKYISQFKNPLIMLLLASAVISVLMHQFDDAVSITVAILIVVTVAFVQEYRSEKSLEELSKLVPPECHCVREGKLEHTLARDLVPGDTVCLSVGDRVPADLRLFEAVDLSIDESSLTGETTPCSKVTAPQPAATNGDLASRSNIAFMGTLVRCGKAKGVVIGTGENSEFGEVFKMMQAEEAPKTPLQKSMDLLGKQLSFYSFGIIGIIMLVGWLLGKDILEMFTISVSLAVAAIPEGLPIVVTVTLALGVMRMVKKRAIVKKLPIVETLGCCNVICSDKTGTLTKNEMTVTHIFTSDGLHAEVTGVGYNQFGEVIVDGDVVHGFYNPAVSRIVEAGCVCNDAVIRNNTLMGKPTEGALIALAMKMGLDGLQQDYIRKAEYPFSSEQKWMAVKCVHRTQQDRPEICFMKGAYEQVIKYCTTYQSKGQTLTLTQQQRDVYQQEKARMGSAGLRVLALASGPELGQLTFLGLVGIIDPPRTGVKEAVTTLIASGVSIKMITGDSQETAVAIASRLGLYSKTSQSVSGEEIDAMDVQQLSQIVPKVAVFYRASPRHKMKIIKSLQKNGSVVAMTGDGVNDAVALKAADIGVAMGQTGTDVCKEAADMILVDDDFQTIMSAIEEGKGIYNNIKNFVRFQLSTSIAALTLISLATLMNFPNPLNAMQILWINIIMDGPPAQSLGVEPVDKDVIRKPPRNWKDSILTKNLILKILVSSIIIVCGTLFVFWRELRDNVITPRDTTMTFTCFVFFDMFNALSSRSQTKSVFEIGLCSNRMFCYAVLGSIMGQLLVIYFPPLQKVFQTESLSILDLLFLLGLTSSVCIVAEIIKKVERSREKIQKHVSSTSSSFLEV
Sequence of UniProt Q8N9R8 (Q8N9R8 whole entry): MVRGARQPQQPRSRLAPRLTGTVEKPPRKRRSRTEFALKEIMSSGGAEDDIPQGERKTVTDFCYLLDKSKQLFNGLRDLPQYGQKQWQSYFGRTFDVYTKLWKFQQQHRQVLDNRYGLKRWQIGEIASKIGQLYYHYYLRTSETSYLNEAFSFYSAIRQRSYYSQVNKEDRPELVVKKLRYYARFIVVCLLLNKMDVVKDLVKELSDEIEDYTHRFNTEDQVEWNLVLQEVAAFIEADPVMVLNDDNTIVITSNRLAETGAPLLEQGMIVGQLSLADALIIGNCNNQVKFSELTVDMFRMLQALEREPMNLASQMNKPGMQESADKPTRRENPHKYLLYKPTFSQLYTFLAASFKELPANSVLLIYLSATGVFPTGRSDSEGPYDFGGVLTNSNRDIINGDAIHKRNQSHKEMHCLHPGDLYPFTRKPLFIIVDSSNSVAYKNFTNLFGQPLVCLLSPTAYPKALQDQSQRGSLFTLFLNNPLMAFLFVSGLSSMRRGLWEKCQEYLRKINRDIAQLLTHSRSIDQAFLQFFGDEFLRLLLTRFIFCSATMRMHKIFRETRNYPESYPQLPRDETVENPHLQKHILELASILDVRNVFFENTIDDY
Sequence of UniProt P13929 (P13929 whole entry): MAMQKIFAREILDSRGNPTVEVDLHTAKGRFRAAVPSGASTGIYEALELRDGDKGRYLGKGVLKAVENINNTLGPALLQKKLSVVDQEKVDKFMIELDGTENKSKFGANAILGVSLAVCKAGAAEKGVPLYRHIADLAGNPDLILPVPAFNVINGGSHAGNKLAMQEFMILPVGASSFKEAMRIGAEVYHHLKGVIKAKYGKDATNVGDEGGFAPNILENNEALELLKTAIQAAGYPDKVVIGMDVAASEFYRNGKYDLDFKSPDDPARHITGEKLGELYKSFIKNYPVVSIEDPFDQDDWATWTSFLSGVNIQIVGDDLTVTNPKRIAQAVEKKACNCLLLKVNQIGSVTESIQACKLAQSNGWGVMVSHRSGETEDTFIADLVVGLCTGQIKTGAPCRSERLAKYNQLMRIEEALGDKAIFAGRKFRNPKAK
Sequence of UniProt P52306 (P52306 whole entry): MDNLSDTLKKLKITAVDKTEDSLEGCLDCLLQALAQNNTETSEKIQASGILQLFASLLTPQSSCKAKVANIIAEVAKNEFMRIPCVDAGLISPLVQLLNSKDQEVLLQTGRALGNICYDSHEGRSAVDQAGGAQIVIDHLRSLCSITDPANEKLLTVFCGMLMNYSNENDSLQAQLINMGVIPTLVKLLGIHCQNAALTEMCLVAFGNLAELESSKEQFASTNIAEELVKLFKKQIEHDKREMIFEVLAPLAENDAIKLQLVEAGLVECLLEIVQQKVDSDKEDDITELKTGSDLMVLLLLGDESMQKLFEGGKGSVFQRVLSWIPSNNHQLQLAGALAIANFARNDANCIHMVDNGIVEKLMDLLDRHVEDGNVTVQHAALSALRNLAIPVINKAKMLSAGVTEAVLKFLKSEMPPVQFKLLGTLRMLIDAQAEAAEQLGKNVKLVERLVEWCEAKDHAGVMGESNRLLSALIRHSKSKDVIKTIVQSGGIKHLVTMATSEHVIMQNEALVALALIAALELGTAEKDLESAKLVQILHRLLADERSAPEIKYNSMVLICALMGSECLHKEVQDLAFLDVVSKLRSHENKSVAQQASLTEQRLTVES
Sequence of UniProt Q9NWZ3 (Q9NWZ3 whole entry): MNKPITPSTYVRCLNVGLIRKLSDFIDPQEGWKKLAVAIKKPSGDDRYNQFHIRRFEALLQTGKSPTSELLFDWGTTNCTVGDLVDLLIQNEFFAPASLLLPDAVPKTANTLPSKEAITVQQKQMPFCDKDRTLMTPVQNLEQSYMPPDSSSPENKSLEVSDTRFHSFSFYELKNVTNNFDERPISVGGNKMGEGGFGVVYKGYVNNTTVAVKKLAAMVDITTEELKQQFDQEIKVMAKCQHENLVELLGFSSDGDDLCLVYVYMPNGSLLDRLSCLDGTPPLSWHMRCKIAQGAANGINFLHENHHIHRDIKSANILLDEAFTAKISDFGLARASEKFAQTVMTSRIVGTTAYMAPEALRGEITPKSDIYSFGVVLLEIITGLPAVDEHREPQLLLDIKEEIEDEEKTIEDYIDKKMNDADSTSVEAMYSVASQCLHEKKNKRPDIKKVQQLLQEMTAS
Sequence of UniProt Q9UHW5 (Q9UHW5 whole entry): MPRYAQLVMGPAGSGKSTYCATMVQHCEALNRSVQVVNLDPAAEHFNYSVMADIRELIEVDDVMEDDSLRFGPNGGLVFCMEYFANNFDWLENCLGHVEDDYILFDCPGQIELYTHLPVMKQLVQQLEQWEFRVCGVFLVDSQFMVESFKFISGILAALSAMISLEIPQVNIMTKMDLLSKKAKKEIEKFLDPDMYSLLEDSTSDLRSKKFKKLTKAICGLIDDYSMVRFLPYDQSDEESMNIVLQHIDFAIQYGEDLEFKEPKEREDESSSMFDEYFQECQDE
Sequence of UniProt O43681 (O43681 whole entry): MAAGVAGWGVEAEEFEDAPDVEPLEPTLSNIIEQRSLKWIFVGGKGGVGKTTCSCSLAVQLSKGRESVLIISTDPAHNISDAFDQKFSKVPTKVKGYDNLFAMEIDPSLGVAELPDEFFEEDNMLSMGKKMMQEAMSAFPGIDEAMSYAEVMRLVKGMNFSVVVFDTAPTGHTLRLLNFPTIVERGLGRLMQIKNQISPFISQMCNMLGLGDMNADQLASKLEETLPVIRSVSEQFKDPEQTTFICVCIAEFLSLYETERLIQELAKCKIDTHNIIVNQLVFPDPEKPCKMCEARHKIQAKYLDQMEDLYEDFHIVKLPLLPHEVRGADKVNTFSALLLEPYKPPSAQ
Sequence of UniProt Q6UWP7 (Q6UWP7 whole entry): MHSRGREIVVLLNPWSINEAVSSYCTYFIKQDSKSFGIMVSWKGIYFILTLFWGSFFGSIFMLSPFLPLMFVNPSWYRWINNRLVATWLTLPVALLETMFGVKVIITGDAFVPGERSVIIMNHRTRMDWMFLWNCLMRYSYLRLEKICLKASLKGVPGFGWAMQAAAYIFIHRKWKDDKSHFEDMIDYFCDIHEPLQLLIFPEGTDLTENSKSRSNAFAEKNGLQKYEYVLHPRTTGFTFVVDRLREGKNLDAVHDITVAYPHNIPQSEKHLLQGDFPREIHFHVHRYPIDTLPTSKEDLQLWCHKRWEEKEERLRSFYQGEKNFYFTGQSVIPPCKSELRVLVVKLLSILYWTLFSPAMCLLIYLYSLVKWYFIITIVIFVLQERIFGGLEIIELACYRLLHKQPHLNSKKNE

| Target | pEC50 |
| --- | --- |
| HIST1H1C (effect direction: destabilized) (UniProt P16403) | 4.05 |
| UniProt Q6ZUM4 (effect direction: stabilized) | 3.74 |
| UniProt P61513 (effect direction: destabilized) | 3.27 |
| RPL28 (effect direction: destabilized) (UniProt P46779) | 4.17 |
| ENO3 (effect direction: destabilized) (UniProt P13929) | < 2.7 |
| ASNA1 (effect direction: stabilized) (UniProt O43681) | 3.31 |
| UniProt Q9NZM5 (effect direction: destabilized) | 2.72 |
| CAMK2G (effect direction: stabilized) (UniProt Q13555) | 3.4 |
| PTBP1 (effect direction: stabilized) (UniProt P26599) | 3.15 |
| IMPA2 (effect direction: destabilized) (UniProt O14732) | < 2.7 |
| PGGT1B (effect direction: stabilized) (UniProt P53609) | 3.47 |
| UniProt P61163 (effect direction: stabilized) | 3.1 |
| PABPN1 (effect direction: destabilized) (UniProt Q86U42) | 3.23 |
| HSD17B7 (effect direction: stabilized) (UniProt P56937) | 3.22 |
| ARHGDIB (effect direction: stabilized) (UniProt P52566) | < 2.7 |
| PRKAG1 (effect direction: stabilized) (UniProt P54619) | 3.27 |
| GLA (effect direction: stabilized) (UniProt P06280) | 3.03 |
| GPN3 (effect direction: destabilized) (UniProt Q9UHW5) | 2.74 |
| UniProt Q8N9R8 (effect direction: stabilized) | 3.01 |
| PRKAB1 (effect direction: stabilized) (UniProt Q9Y478) | 3.22 |
| ARPC5L (effect direction: stabilized) (UniProt Q9BPX5) | 4.05 |
| HNRNPL (effect direction: stabilized) (UniProt P14866) | 3.23 |
| UniProt O14757 (effect direction: stabilized) | 3.26 |
| ATP11B (effect direction: stabilized) (UniProt Q9Y2G3) | 4.15 |

| Target | pEC50 |
| --- | --- |
| STAG2 (effect direction: stabilized) (UniProt Q8N3U4) | 4.09 |
| ATP2C1 (effect direction: stabilized) (UniProt P98194) | 3.66 |
| MDH1 (effect direction: stabilized) (UniProt P40925) | 5 |
| UniProt Q9UH99 (effect direction: stabilized) | 3.34 |
| UTP15 (effect direction: destabilized) (UniProt Q8TED0) | 2.92 |
| FKBP5 (effect direction: stabilized) (UniProt Q13451) | < 2.7 |
| UniProt P51812 (effect direction: stabilized) | 3.89 |
| UniProt P60891 (effect direction: stabilized) | 3 |
| FBL (effect direction: destabilized) (UniProt P22087) | 3.44 |
| IRAK4 (effect direction: stabilized) (UniProt Q9NWZ3) | 3.3 |
| DCTN1 (effect direction: stabilized) (UniProt Q14203) | < 2.7 |
| MRPS22 (effect direction: destabilized) (UniProt P82650) | 4.46 |
| ARMC1 (effect direction: stabilized) (UniProt Q9NVT9) | < 2.7 |
| HLTF (effect direction: stabilized) (UniProt Q14527) | 4.11 |
| MDP1 (effect direction: destabilized) (UniProt Q86V88) | < 2.7 |
| FTSJ3 (effect direction: destabilized) (UniProt Q8IY81) | 3.22 |
| HIST1H1B (effect direction: destabilized) (UniProt P16401) | < 2.7 |
| XRCC5 (effect direction: stabilized) (UniProt P13010) | < 2.7 |
| KIF2C (effect direction: stabilized) (UniProt Q99661) | 4.18 |
| PPP1R7 (effect direction: stabilized) (UniProt Q15435) | < 2.7 |
| AK2 (effect direction: stabilized) (UniProt P54819) | 4.01 |
| UniProt Q86V81 (effect direction: destabilized) | 3.07 |
| DDX49 (effect direction: stabilized) (UniProt Q9Y6V7) | 3.93 |
| KATNAL1 (effect direction: stabilized) (UniProt Q9BW62) | 3.26 |

| Target | pEC50 |
| --- | --- |
| SMC1A (effect direction: stabilized) (UniProt Q14683) | 3.41 |
| PACSIN2 (effect direction: stabilized) (UniProt Q9UNF0) | < 2.7 |
| PARN (effect direction: stabilized) (UniProt O95453) | < 2.7 |
| TOR1A (effect direction: stabilized) (UniProt O14656) | 4.09 |
| PDK3 (effect direction: stabilized) (UniProt Q15120) | 2.84 |
| UniProt Q147X3 (effect direction: stabilized) | 2.88 |
| RAP1GDS1 (effect direction: stabilized) (UniProt P52306) | < 2.7 |
| TPP1 (effect direction: stabilized) (UniProt O14773) | 3.26 |
| UniProt Q12905 (effect direction: stabilized) | 2.84 |
| OGDH (effect direction: stabilized) (UniProt Q02218) | 3.3 |
| RBM26 (effect direction: stabilized) (UniProt Q5T8P6) | 3.67 |
| CARS2 (effect direction: stabilized) (UniProt Q9HA77) | 3.14 |
| ATG7 (effect direction: stabilized) (UniProt O95352) | 3.74 |
| LCLAT1 (effect direction: stabilized) (UniProt Q6UWP7) | 3.56 |
| FARSB (effect direction: stabilized) (UniProt Q9NSD9) | 3.16 |
| SMC2 (effect direction: stabilized) (UniProt O95347) | 3.49 |
| CTBP1 (effect direction: stabilized) (UniProt Q13363) | 2.87 |
| ACTL6A (effect direction: stabilized) (UniProt O96019) | 3.4 |
| TCP1 (effect direction: stabilized) (UniProt P17987) | 4.76 |
| STXBP2 (effect direction: stabilized) (UniProt Q15833) | < 2.7 |
| VARS2 (effect direction: stabilized) (UniProt Q5ST30) | 3.22 |
| KIF11 (effect direction: stabilized) (UniProt P52732) | 3.26 |
| JMJD6 (effect direction: stabilized) (UniProt Q6NYC1) | 3.21 |
